Values joined by “and” are separate entries in the source; they are usually repeats but may differ in a detail not shown here. Identical values can stand only once. Counter-ions that a name gives are not always drawn. Like-named read-outs stand apart in the source and are kept apart here. Marks after values point to notes of the source that are not given here.
What was measured:
P. falciparum = assay: Antimalarial activity against P. falciparum in vitro (Desjardins [3H]hypoxanthine incorporation); assay type: cell-based
Description: FIG. 1, the anti-malarial action of a precursor of thiazolium (designated by TE4c in the examples), and corresponding thiazolium (T4) as a function of the concentration of drug, according to the Desjardins test, (Desjardins R. E. et al, Antimicrob. Agents Chemother. 1979, 16, 710-718),
The IC50 measurements are determined vis-à-vis P. falciparum according to the Desjardins method in which the incorporation of [^3H] hypoxanthine (FIG. 1) into the nucleic acids is an indicator of cell viability. In each case, optical microscopy controls are carried out.
(§1) The IC50 is the concentration which inhibits by 50% the in vitro growth of P. falciparum: the LD50 is the lethal dose corresponding to the death of 50% of the mice and the ED50 is the effective dose for inhibiting by 50% the in vivo growth of P. vinckei according to a 4-day suppressive test, TI corresponds to the therapeutic index, TI=LD50 (semi-chronic)/ED50; ip: intraperitoneal administration; po: per os.

[1] = Tolerance in the mouse: LD50 after acute or semi-chronic administration; assay type: in vivo; settings: for Oral absorption index (LD50 po/LD50 ip ratio, acute): acute administration; for LD50 / LD50 at 4 days: in vivo; for LD50 / In vivo LD50 (mg/kg) (mouse) acute: single dose; for LD50 at 4 days / In vivo LD50 (mg/kg) (mouse) semi-chronic: twice per day for 4 consecutive days
Excerpt: (§2) B) Antimalarial Activity in vivo Against a Mouse Infected by P. vinckei and Tolerance After Administration in Acute or Semi-chronic Conditions.
as §1

P. vinckei = assay: animal or person; assay type: in vivo; settings: mouse, 4-day suppressive test, TE4c in 50/50 PEG/castor oil; for ED50: Plasmodium vinckei, 96 h, read-out: In vivo ED50 (mg/kg) (P. vinckei)
Excerpt: as §2, §1

[2] = Pharmacokinetics / serum level in the mouse (ex vivo bio-test on P. falciparum)
Description: The results of the pharmacokinetic parameters after administration by intraperitoneal or oral route in a mouse for a prodrug of disulphice type (TS3b) and a prodrug of thioester type (TE4c) are presented hereafter.
(§3) For determination of the serum level, bio-tests are used ex vivo: briefly, the medicament is administered to the animal, then repeated blood samples are taken. The sera are decomplemented for 30 minutes at 56° C. The active metabolite content is then determined by incubation of different concentrations (dichotomic dilution) of each serum, in the presence of suspensions of erythrocytes infected by P. falciparum, according to the DESJARDINS method with [^3H] hypoxanthine.
The results are expressed in IS50, which corresponds to the percentage of serum (containing an active metabolite) capable of inhibiting the growth of P. falciparum by 50%.
This value is then converted into a serum concentration, (usually expressed in ng/ml) by testing the active compound directly (without passing through the animal), on the same suspension infected by P. falciparum and by determining its IC50 value (in ng/ml) [serum level=IC50] (in ng/ml)×100/IS50 (in %)].
(§4) The results are expressed as the log (serum level of medicaments), as a function of time, which allows the evaluation of the half-time for distribution to the serum compartment t1/2(d); the half-time for elimination of the serum compartment (t1/2(e)); of C0), corresponding to the serum level originally extrapolated during the elimination phase; the AUC (which indicates the quantity of drug circulating in the blood stream); and the relative bio-availability in the oral route administration method, as against the intraperitoneal route method [AUC (po)/AUC (ip)] which is an indicator of the degree of absorption by oral route.

[3] = test system: P. falciparum (FVO strain); assay: Antimalarial activity against Plasmodium falciparum in the Aotus monkey; assay type: in vivo; settings: Aotus monkeys
Description: 3 Aotus monkeys were infected with P. falciparum (FVO strain). When the blood parasitemia reached 1% (2 monkeys) or 6% (1 monkey), treatment by intramuscular route at a rate of 2 injections per day of TE4c (2mg/kg), for 8 days, was carried out.

[4] = Pharmacokinetics in the monkey (ex vivo bio-test serum level); settings: Macaca fascicularis, intramuscular 4 mg/kg
Description: as §3
The results are expressed in IS50, which corresponds to the percentage of serum (containing an active metabolite) capable of inhibiting the growth of P. falciparum by 50%. […]
as §4, with “route. […]” for “route.”

B. canis = assay: Antibabesiasis activity in vitro against B. canis; assay type: cell-based
Description: (§5) The products TE4c, TS3b and P1 were also evaluated in vitro for their activities against Babesia divergens and B. canis.

Babesia divergens = assay: Antibabesiasis activity in vitro against Babesia divergens; assay type: cell-based
Description: as §5

[5] = in vitro growth of P. falciparum, [3H]hypoxanthine incorporation, 48 hours test, read-out: IC50
[6] = ip, TE4c value corresponds to death of only 25% of the mice, read-out: In vivo LD50 (mg/kg) (mouse) semi-chronic
[7] = po, read-out: In vivo LD50 (mg/kg) (mouse) semi-chronic
[8] = ip, TE4c value corresponds to death of only 25% of the mice
[9] = 3 mg/kg ip and 50 mg/kg po, both routes
[10] = ip 3 mg/kg TE4c, active metabolite considered to be T4
[11] = oral 50 mg/kg TE4c, active metabolite considered to be T4
[12] = oral route, higher dose series (150 mg/kg po)

With “1,12-decamethylene bis[4-methyl-5-(2-methoxyethyl)thiazolium] diiodide [T4]” the IC50 (P. falciparum; [5]) was 0.65 nM.

In the case of “1,16-hexadecamethylenebis[4-methyl-5-(2-methoxyethyl)thiazolium] diiodide [T8]”, the IC50 (P. falciparum; [5]) is reported as 1.1 nM.

“2,15-(N,N′-diformyl-N,N′-dibenzyl)diamino-1,16-S-thiobenzoyl-hexadeca-1,15-diene [TE16]” gave an IC50 (P. falciparum; [5]) of 12 nM.

With `C[N+]1(CCCCCCCCCCCCCCCC[N+]2(C)CCCC2)CCCC1` [G25, 1,16-hexadecamethylene bis-(N-methylpyrrolidinium), reference compound] the “Oral absorption index (LD50 po/LD50 ip ratio, acute)” value [1] was 87, the LD50 ([1]; ip) was 1.27 mg/kg and the LD50 at 4 days [1, 6] was 1.15 mg/kg. The LD50 ([1]; po) was 130 mg/kg, the LD50 at 4 days [1, 7] was 65 mg/kg and the ED50 (P. vinckei; ip) was 0.22 mg/kg. For the same compound, the ED50 (P. vinckei; po) was about 15 mg/kg and the IC50 (P. falciparum; Plasmodium falciparum) was 0.6 nM.

In the case of `CC(Cl)CCCN(C)CCCCCCCCCCCCCCCCN(C)CCCC(C)Cl` (stereo not shown) [P2, N,N′-dimethyl-N,N′-(4-chloropentyl)-1,16-hexadecanediamine hydrochloride], the IC50 (P. falciparum; [5]) is reported as 0.5 nM.

For `Cc1c(CCO)sc[n+]1CCCCCCCCCCCC[n+]1csc(CCO)c1C.[Br-].[Br-]` [T3, 1,12-dodecamethylene bis [4-methyl-5-(2-hydroxyethyl)thiazolium] dibromide], the “Oral absorption index (LD50 po/LD50 ip ratio, acute)” value [1] was 70, the “In vivo LD50 (mg/kg) (mouse) acute” value ([1]; ip) was 10 mg/kg and the “In vivo LD50 (mg/kg) (mouse) semi-chronic” value [1, 8] was 7.5 mg/kg. For the same compound, the “In vivo LD50 (mg/kg) (mouse) acute” value ([1]; po) was 700 mg/kg, the “In vivo LD50 (mg/kg) (mouse) semi-chronic” value ([1]; po) was 160 mg/kg and the IC50 (P. falciparum; [5]) was 2.25 nM.

`Cc1csc[n+]1CCCCCCCCCCCC[n+]1cscc1C` [T6, 1,12-dodecamethylenebis(4-methylthiazolium) diiodide] showed an IC50 (P. falciparum; [5]) of 3 nM.

For `Cc1c(CCOCCCCCCOCCc2sc[n+](Cc3ccccc3)c2C)sc[n+]1Cc1ccccc1` [T10, 3,10-dioxadodecamethylenebis[5-(1-benzyl, 4-methyl)-thiazolium] dibromide], the IC50 (P. falciparum; [5]) was 2.5 nM.

With `CCOC(=O)CCc1c(CCCCCCCCCCCCc2sc[n+](Cc3ccccc3)c2CCC(=O)OCC)sc[n+]1Cc1ccccc1` [T13, dodecamethylenebis[5-(1-benzyl-4-ethoxycarbonylethyl)-thiazolium] dibromide] the IC50 (P. falciparum; [5]) was 250 nM.

In the case of `c1ccc(Cc2csc[n+]2CCCCCCCCCCCC[n+]2cscc2Cc2ccccc2)cc1` [T16, dodecamethylenebis[4-(1-benzyl)-thiazolium] dibromide], the IC50 (P. falciparum; [5]) is reported as 10 nM.

For `CC(=C1CCOC(=O)S1)N(C=O)CCCCCCCCCCCCN(C=O)C(C)=C1CCOC(=O)S1` [TE3, N,N′-diformyl-N,N′-di[1(2-oxo-4,5-dihydro-1,3-oxathian-4-ylidene)ethyl]1,12-diaminododecane], the IC50 (P. falciparum; [5]) was 3 nM and 2.6 nM.

For `COCCC(SC(=O)c1ccccc1)=C(C)N(C=O)CCCCCCCCCCCCN(C=O)C(C)=C(CCOC)SC(=O)c1ccccc1` [TE4c, N,N′-diformyl-N,N′-di[1-methyl-2-S-thiobenzoyl-4-methoxybut-1-enyl]-1,12-diaminododecane], the “time of first serum level peak” value [2, 9] was “in less than two hours”, the “time of second serum level peak” value [2, 9] was “around 15 hours” and the “relative bioavailability [AUC (po)/AUC (ip)]” value ([2]; 50 mg/kg po vs 3 mg/kg ip) was 5%. For the same compound, the “time of second serum level peak” value ([2]; higher doses 10 mg/kg ip and 150 mg/kg po) was “around 23 hours”, the AUC [2, 10] was 3300 ng·h/mL and the C0 [2, 10] was 180 ng/mL. It also gave a t1/2 [2, 10] of 12 h, an AUC [2, 11] of 2700 ng·h/mL and a C0 [2, 11] of 130 ng/mL. For the same compound, the C0 [2, 12] was 1000 ng/mL, the t1/2 [2, 12] was “around 10 hours” and the “Oral absorption index (LD50 po/LD50 ip ratio, acute)” value [1] was “˜10”. The “In vivo LD50 (mg/kg) (mouse) acute” value ([1]; ip) was 100 mg/kg, the “In vivo LD50 (mg/kg) (mouse) semi-chronic” value [1, 8] was “≧30^d mg/kg” and the “In vivo LD50 (mg/kg) (mouse) acute” value ([1]; po) was “˜1000 mg/kg”. The “In vivo LD50 (mg/kg) (mouse) semi-chronic” value ([1]; po) was “˜300 mg/kg”, the “recurrence of parasitemia after treatment” value ([3]; 6 months following the treatment) was “no further occurrence was observed in the 6 months following the treatment” and the “blood parasitemia after treatment” value ([3]; parasitemia 1% or 6% at start, im 2 mg/kg, 2 injections per day, 8 days) was “completely eliminated”. The “In vivo ED50 (mg/kg) (P. vinckei)” value (P. vinckei; ip) was 1 mg/kg and the IC50 (P. falciparum; [5]) was 2 nM.

For `CCN(CC)Cc1ccc(C(=O)SC(CCOC)=C(C)N(C=O)CCCCCCCCCCCCN(C=O)C(C)=C(CCOC)SC(=O)c2ccc(CN(CC)CC)cc2)cc1` [TE4f, N,N′-diformyl-N,N′-di[1-methyl-2-S-(p-diethylaminomethylphenylcarboxy)-thio-4-methoxybut-1-enyl]-1,12-diaminododecane], the IC50 (P. falciparum; [5]) was 2.3 nM.

`COCCC(SC(=O)c1ccc(CN2CCOCC2)cc1)=C(C)N(C=O)CCCCCCCCCCCCN(C=O)C(C)=C(CCOC)SC(=O)c1ccc(CN2CCOCC2)cc1` [TE4g, N,N′-diformyl-N,N′-di[1-methyl-2-S-(p-morpholino-methylphenylcarboxy)-thio-4-methoxybut-1-enyl]-1,12-diaminododecane] showed an IC50 (P. falciparum; [5]) of 2.3 nM.

`COc1ccc(C(=O)SC(CCOCCCCCCOCCC(SC(=O)c2ccc(OC)cc2)=C(C)N(C=O)Cc2ccccc2)=C(C)N(C=O)Cc2ccccc2)cc1` [TE10, 2,17-(N,N′-diformyl-N,N′-dibenzyl)diamino-3,16-S-thio-p-methoxybenzoyl-6,13-dioxaoctadeca-2,16-diene] showed an IC50 (P. falciparum; [5]) of 12 nM.

With `CCOC(=O)CC(=C(CCCCCCCCCCCCC(SC(=O)c1ccccc1)=C(CC(=O)OCC)N(C=O)Cc1ccccc1)SC(=O)c1ccccc1)N(C=O)Cc1ccccc1` [TE13, ethyl 3,18-(N,N′-diformyl-N,N′-dibenzyl)diamino-4,17-S-thiobenzoyleicosa-3,17-dienedioate] the IC50 (P. falciparum; [5]) was 650 nM.

In the case of `CCCSSC(CCO)=C(C)N(C=O)CCCCCCCCCCCCN(C=O)C(C)=C(CCO)SSCCC` [TS3b, N,N′-diformyl-N,N′-di[1-methyl-2-propyl-dithio-4-hydroxybut-1-enyl]-1,12-diaminododecane], the “Oral absorption index (LD50 po/LD50 ip ratio, acute)” value [1] is reported as 6.7, the LD50 at 4 days ([1]; ip, infected mice, ip, read-out: In vivo LD50 (mg/kg) semi-chronic in mice infected with malaria) is reported as 32 mg/kg and the LD50 ([1]; ip) is reported as 240 mg/kg. It also gave an LD50 at 4 days [1, 6] of 90 mg/kg, an LD50 ([1]; po) of 1600 mg/kg and an LD50 at 4 days [1, 7] of 410 mg/kg. The “time of first serum level peak” value [4] was “in less than two hours”, the ED50 (P. vinckei; ip) was about 7 mg/kg and the ED50 (P. vinckei; po) was about 180 mg/kg. The IC50 (P. falciparum; Plasmodium falciparum, in vitro growth of P. falciparum, [3H]hypoxanthine incorporation, 48 hours test, read-out: IC50) was 1.3 nM, the IC50 (B. canis) was under 20 nM and the IC50 (Babesia divergens) was under 20 nM.

For “N,N′-diformyl-N,N′-di[1-methyl-2-S-(p-phthaloyl)-thio-4-methoxybut-1-enyl]-1,12-diaminododecane [TE4j]”, the IC50 (P. falciparum; [5]) was 2.7 nM.

Work on “N,N′-dimethyl-N,N′-(5-chloropentyl)-1,16-hexadecane diamine hydrochloride [P1]” yielded an IC50 (P. falciparum; [5]) of 1.7 nM.

— patent US6972343B1, “Quaternary bis-ammonium salt precursors and their uses as prodrugs having an antiparasitic activity” (CNRS, priority 1999, dated 2005)
